According to patent US20080188449A1, “Treatment of Conditions Caused By Calcium Abnormalities” (priority 2004, published 2008):

Tests used:
pregnant C57B1/6 mice = experiment: Toxicity dose finding in pregnant mice; format: in vivo; settings: i.p.
Experimental: Triptolide has been previously studied in rodent models of tumor regression (Tengchaisri, et al., 1998, Cancer Lett 133, 169-175; Yang, et al., 2003, Mol Cancer Ther 2, 65-72), but it had not yet been tested in a system utilizing pregnant females. To first establish a potential therapeutic versus lethal concentration of drug delivery, pregnant C57B1/6 mice were treated with incremental concentrations of triptolide between 0.01-0.15 mg/kg/day i.p. injections. Toxicity was assessed as determined by resorption of all embryos or the preponderance of a large percentage of stillborns. With reference to these criteria, triptolide toxicity was determined to be most prominent at concentrations of 0.1 mg/kg/day or greater. […] Another experimental parameter involved the timing of the start of triptolide injections, since polycystin-2 has been implicated in left-right axis formation in the developing embryo at approximately E7.75 (McGrath, et al., 2003, Cell 114, 61-73; Pennekamp, et al., 2002, Curr Biol 12, 938-943). Applicants therefore chose E10.5 as the start of triptolide injections, in order to allow for a normal polycystin-2 mediated patterning event and still leave sufficient time to act on cyst formation during kidney organogenesis.

[1] = test system: Pkd2^+/− murine cell line; experiment: Viability of Pkd2^+/− cells; format: cell-based; settings: 100 nM
Experimental: Calcium response to triptolide was, thus, shown to be dependent on polycystin-2. The biological response to calcium flux was next assessed in the murine Pkd1^−/− cell line, by adding 100 nM triptolide to the cultured cells and observing cell growth over time. Within the first 24 hours of culture, a minimal number of detached cells was observed. […] In the absence of triptolide, this cell line underwent a population doubling every 48 hours. […] It is possible that additional signaling pathways are activated by triptolide when Pkd1 is expressed. […] Therefore, Applicants assessed whether the inhibition of proliferation observed was due to p21 re-expression upon triptolide treatment.
The Pkd1^−/−(MN24), Pkd2^+/−(3B3) and Pkd2^−/−(2D2) murine cell lines were derived from knockout and transgenic mice as previously reported (Wu, et al., 1998, Cell, 93:177-88; Wu, et al., 2000, Nat. Genet, 24:75-8; Wu, et al., 2002, Hum Mol Genet, 11:1845-54). The PKD2-Rex cell line was made by stable integration of untagged PKD2 under hygromycin selection. Antibodies used included polycystin-2 (Cai, et al. 1999, J Biol Chem, 274:28557-65), cleaved (active) caspase-3 (Cell Signaling Technology) and p21 (BD Biosciences). Triptolide was obtained from Sinobest Inc. (China) and purity was 99% as determined by HPLC. DMSO was used to dissolve triptolide and was then directly added into culture media for all experiments. […]

[2] = test system: Pkd1^−/− murine model of polycystic kidney disease; experiment: Pkd1^−/− murine model of polycystic kidney disease, treatment during gestation; format: in vivo, mice
Experimental: Following successful Pkd1^+/−/Pkd1^+/− matings, 0.07 mg/kg/day of triptolide or DMSO control was injected i.p. into pregnant mice until they gave birth. All pups were assessed for viability, length, developmental staging, and wet kidney weight. A total of 59 pups from DMSO treated females and 100 pups from triptolide treated females were examined for multiple parameters, such as genotypic distribution, developmental stage at time of birth, and average kidney weights (Table 1). […] Approximately 20% of all Pkd1^−/− mice were born alive from each treatment group. However, severe edematous abnormalities were obvious upon necropsy.
As per approved IACUC animal protocol, Pkd1^+/−/Pkd1^+/− mice were mated and pregnant mice were divided into control (DMSO) or experimental (triptolide) groups. A total volume of 100 μl of PBS with no more than 5% DMSO or DMSO/0.07 mg/kg/day triptolide was injected i.p. with a 28 G ½ insulin syringe. Mice were weighed and injected starting at E10.5 until birth. All pups were examined for length and developmental staging such as whisker formation. Kidneys were harvested, weighed, and fixed in 4% paraformaldehyde before histological preparation.
Kidneys were prepared by sagittal cross-sectioning and hematoxylin and eosin staining. All kidneys were photographed under the same magnification (4×) and cystic burden was computed using Image J analysis software (NIH). The area of cysts within the total area of the kidney (pixels) was calculated as a final percentage of cystic burden in the kidney. Immunohistochemical analysis of active caspase-3 was completed as per manufacturer's protocol.

[3] = 0.07 mg/kg/day i.p. to pregnant mice, E10.5 until birth

SMILES: CC(C)[C@]12O[C@H]1[C@@H]1O[C@]13[C@]1(O[C@H]1C[C@H]1C4=C(CC[C@@]13C)C(=O)OC4)[C@@H]2O [triptolide, Triptolide]
- dose at which toxicity was most prominent (resorption of embryos, stillborns) (pregnant C57B1/6 mice): ≥ 0.1 mg/kg/day
- cell death [1]: rapid cell death within 24 hours
- Alive Pkd1^−/− (birth) (number) [2, 3]: 4
- Alive Pkd1^−/− (birth) (percent) [2, 3]: Approximately 20%
- Alive Pkd1^−/− (birth) (percent) ([2]; 0.07 mg/kg/day i.p. to pregnant mice, E10.5 until birth, listed as Triptolide): 22%
- diameter of cyst lumens on average ([2]; Pkd1^−/− kidneys): smaller
- active caspase-3 immunoreactivity in kidney sections ([2]; Pkd1^−/− kidneys, IHC): did not show any significant activation of the caspase pathway
- kidney morphology ([2]; mouse, in vivo): normal morphology
